The source of these data is PubChem BioAssay (NCI).

The structures appear in SMILES notation.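 Values below derive from 48-hour exposures of cells grown in 96-well plates, with endpoints linearly interpolated between the two concentrations bracketing the appropriate inhibition level. TGI: concentration producing complete growth inhibition.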 Bounds are passed on as bounds.

Some test systems named below: M14 melanoma; PC-3 prostate; UACC-257 melanoma; HCT-116 colon; NCI/ADR-RES ovarian; KM12 colon; HS 578T breast; SR leukemia; SNB-75 CNS; A549 NSCLC; NCI-H23 lung; OVCAR-3 ovarian; NCI-H522 lung; COLO 205 colon; MALME-3M melanoma; LOX IMVI melanoma.
What all share (assay): DTP human tumour cell line panel, 48 h

`CCn1cc2c(=O)n3ncn(-c4ccc(Br)cc4)c3nc2n1`: the concentration for total growth inhibition (TGI) in the test on M14 melanoma, with PC-3 prostate, in the test on UACC-257 melanoma, in the test on HCT-116 colon, in the test on NCI/ADR-RES ovarian and in the test with KM12 colon was over 100 µM in each case. Besides, the TGI with HS 578T breast was over 100 µM; in the test with SR leukemia, over 100 µM; in the test on SNB-75 CNS it was 45.8 µM; with A549 NSCLC, over 100 µM; in the test on NCI-H23 lung it was over 100 µM; with OVCAR-3 ovarian, over 100 µM. Moreover, the TGI with NCI-H522 lung, in the test on COLO 205 colon and with MALME-3M melanoma was over 100 µM throughout.
For the compound `COc1ccc(CNc2cnc3cc(N)ccc3n2)cc1`, the TGI in the test with M14 melanoma, in the test on HCT-116 colon, in the test on LOX IMVI melanoma, with KM12 colon, with SR leukemia and with SNB-75 CNS was over 100 µM throughout. Moreover, the TGI in the test on A549 NSCLC, with NCI-H23 lung, in the test with OVCAR-3 ovarian, in the test on NCI-H522 lung, with COLO 205 colon and with MALME-3M melanoma was over 100 µM each time.
As to `CSC12c3cc(C)n(-c4ccc([N+](=O)[O-])cc4)c3CC(C)(C)CN1C(=O)C2Oc1ccccc1` (stereo not drawn), the TGI with M14 melanoma, in the test with PC-3 prostate, in the test on UACC-257 melanoma, in the test on HCT-116 colon, in the test with LOX IMVI melanoma and with NCI/ADR-RES ovarian was over 100 µM each time. Further, the concentration for total growth inhibition (TGI) in the test with KM12 colon, with SR leukemia, in the test on SNB-75 CNS, in the test on A549 NSCLC, with NCI-H23 lung and in the test with OVCAR-3 ovarian was over 100 µM throughout. In the test with COLO 205 colon, this compound gave a TGI of over 100 µM.
As for `CC1=NN(c2cccc(Cl)c2)C2(SCC(=O)N2c2nc3ccccc3s2)C1=CC=Cc1ccccc1` (stereo not drawn), the concentration for total growth inhibition (TGI) is over 100 µM in the test with M14 melanoma; over 100 µM with PC-3 prostate; over 100 µM with UACC-257 melanoma; 73.7 µM in the test with HCT-116 colon; over 100 µM in the test on LOX IMVI melanoma; over 100 µM in the test with NCI/ADR-RES ovarian. In addition, the TGI in the test on KM12 colon was over 100 µM; in the test on HS 578T breast, 63.4 µM; with SR leukemia it was 61.8 µM; in the test with NCI-H23 lung it was 91.1 µM; in the test with OVCAR-3 ovarian, over 100 µM; in the test with NCI-H522 lung it was 62.3 µM.
In the case of `CC(=O)Nc1ccc2c3c(cc(O)c2c1)N(C(=O)CCCC(=O)N1CC(CCl)c2c1cc(O)c1cc(NC(C)=O)ccc21)CC3CCl` (stereo not drawn), the TGI was 0.0175 µM in the test on M14 melanoma; 0.421 µM with PC-3 prostate; over 100 µM with LOX IMVI melanoma; over 100 µM in the test on NCI/ADR-RES ovarian; 11.6 µM with KM12 colon; under 0.01 µM with SR leukemia. Further, the TGI is under 0.0262 µM in the test on SNB-75 CNS; 0.0325 µM in the test on NCI-H23 lung; 0.0262 µM with OVCAR-3 ovarian; 0.0212 µM with NCI-H522 lung; 0.0215 µM in the test with COLO 205 colon; 0.0318 µM in the test with MALME-3M melanoma.
With `C=C(C)C12CC3CC(/C(=N/O)C(C1)/C3=N\O)[C@@]2(C)O` (stereo partly drawn), the total growth inhibition concentration (TGI) in the test on M14 melanoma, with UACC-257 melanoma, with HCT-116 colon, in the test on LOX IMVI melanoma, in the test on SR leukemia and in the test on SNB-75 CNS was over 100 µM throughout. Further, the total growth inhibition concentration (TGI) in the test with A549 NSCLC, with NCI-H23 lung, in the test on OVCAR-3 ovarian, with NCI-H522 lung, with COLO 205 colon and in the test on MALME-3M melanoma was over 100 µM throughout.
Take `CC1=NN(c2nc(N)nc(CN3CCOCC3)n2)C(C)(C)C1`: the concentration for total growth inhibition (TGI) was over 100 µM in the test with M14 melanoma; over 100 µM in the test on PC-3 prostate; over 100 µM in the test on UACC-257 melanoma; over 100 µM with HCT-116 colon; 28.5 µM in the test on LOX IMVI melanoma; over 100 µM in the test on NCI/ADR-RES ovarian. The TGI in the test with KM12 colon, in the test with HS 578T breast, in the test with SR leukemia, in the test on SNB-75 CNS, in the test on A549 NSCLC and in the test with NCI-H23 lung was over 100 µM throughout. The total growth inhibition concentration (TGI) was over 100 µM in the test on OVCAR-3 ovarian, 29.1 µM in the test on NCI-H522 lung and over 100 µM in the test on COLO 205 colon.
For `CCOC(=O)C(C(=O)OCC)=C1SC(=Nc2ccccc2)C(=Nc2ccccc2)N1c1ccccc1`, the TGI with PC-3 prostate, in the test with HCT-116 colon, in the test with NCI/ADR-RES ovarian, in the test on KM12 colon, with HS 578T breast and with SR leukemia was over 100 µM in each case. For the same compound, the TGI in the test with SNB-75 CNS, in the test on A549 NSCLC, in the test with NCI-H23 lung, with OVCAR-3 ovarian, in the test on NCI-H522 lung and in the test on COLO 205 colon was over 100 µM each time. This compound also showed a TGI in the test on MALME-3M melanoma of over 100 µM.
Take `Cc1ccc(O)c(C(c2cccc(C(c3cc(C)ccc3O)c3cc(C)ccc3O)c2)c2cc(C)ccc2O)c1`: the total growth inhibition concentration (TGI) in the test on M14 melanoma is 3.45 µM; in the test on PC-3 prostate, 3.29 µM; with UACC-257 melanoma, 3.86 µM; with HCT-116 colon, 3.34 µM; in the test with NCI/ADR-RES ovarian it was 7.66 µM; in the test with KM12 colon it was 3.23 µM. Further, the TGI came to 4.01 µM with HS 578T breast; 7.55 µM in the test with SR leukemia; 3.54 µM in the test on SNB-75 CNS; 4 µM with A549 NSCLC; 3.18 µM in the test on NCI-H23 lung; 4.35 µM with OVCAR-3 ovarian. For the same compound, the total growth inhibition concentration (TGI) in the test on NCI-H522 lung stood at 3.03 µM; in the test on COLO 205 colon, 2.47 µM; with MALME-3M melanoma, 3.77 µM.
`CCOCCOCCOCc1nc(C#N)c(N)o1`: the TGI with M14 melanoma, in the test with PC-3 prostate, in the test on UACC-257 melanoma, in the test on HCT-116 colon, with LOX IMVI melanoma and in the test with NCI/ADR-RES ovarian was over 100 µM in each case. Moreover, the total growth inhibition concentration (TGI) in the test on KM12 colon, in the test with SR leukemia, in the test with SNB-75 CNS, in the test with A549 NSCLC, in the test on NCI-H23 lung and with OVCAR-3 ovarian was over 100 µM throughout. Further, the TGI with NCI-H522 lung and with COLO 205 colon was over 100 µM each time.

The term TGI denotes the concentration at which net growth stops.
